According to ChEMBL document CHEMBL1147782, “Peptide inhibitors of dengue virus NS3 protease. Part 2: SAR study of tetrapeptide aldehyde inhibitors” (Bioorg Med Chem Lett, 2006):
Square brackets hold non-standard residues; d marks the D form. Peptide text beside a SMILES is read from it. * marks the point of attachment. Phe(4-guanidino) = N=C(N)Nc1ccc(C[C@H](N)C(=O)O)cc1; Bip = N[C@@H](Cc1ccc(-c2ccccc2)cc1)C(=O)O; Phe(4-CN) = N#Cc1ccc(C[C@H](N)C(=O)O)cc1; Phe(4-Cl) = N[C@@H](Cc1ccc(Cl)cc1)C(=O)O; Phe(4-Me) = Cc1ccc(C[C@H](N)C(=O)O)cc1; NMeR = CN[C@@H](CCCNC(=N)N)C(=O)O; hPhe = N[C@@H](CCc1ccccc1)C(=O)O; NMeK = CN[C@@H](CCCCN)C(=O)O; NMeNle = CCCC[C@H](NC)C(=O)O; Phg = N[C@H](C(=O)O)c1ccccc1; dNle = CCCC[C@@H](N)C(=O)O; Nle = CCCC[C@H](N)C(=O)O; Bz = O=C(c1ccccc1)*

Target: Genome polyprotein (dengue virus type 2, UniProt P29990)
Sequence (P29990 1346-1475 limits assumed): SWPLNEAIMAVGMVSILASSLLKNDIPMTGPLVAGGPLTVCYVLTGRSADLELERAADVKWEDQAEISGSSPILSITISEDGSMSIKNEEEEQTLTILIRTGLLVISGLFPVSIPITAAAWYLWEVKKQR
Sequence (P29990 1476-2093 limits assumed): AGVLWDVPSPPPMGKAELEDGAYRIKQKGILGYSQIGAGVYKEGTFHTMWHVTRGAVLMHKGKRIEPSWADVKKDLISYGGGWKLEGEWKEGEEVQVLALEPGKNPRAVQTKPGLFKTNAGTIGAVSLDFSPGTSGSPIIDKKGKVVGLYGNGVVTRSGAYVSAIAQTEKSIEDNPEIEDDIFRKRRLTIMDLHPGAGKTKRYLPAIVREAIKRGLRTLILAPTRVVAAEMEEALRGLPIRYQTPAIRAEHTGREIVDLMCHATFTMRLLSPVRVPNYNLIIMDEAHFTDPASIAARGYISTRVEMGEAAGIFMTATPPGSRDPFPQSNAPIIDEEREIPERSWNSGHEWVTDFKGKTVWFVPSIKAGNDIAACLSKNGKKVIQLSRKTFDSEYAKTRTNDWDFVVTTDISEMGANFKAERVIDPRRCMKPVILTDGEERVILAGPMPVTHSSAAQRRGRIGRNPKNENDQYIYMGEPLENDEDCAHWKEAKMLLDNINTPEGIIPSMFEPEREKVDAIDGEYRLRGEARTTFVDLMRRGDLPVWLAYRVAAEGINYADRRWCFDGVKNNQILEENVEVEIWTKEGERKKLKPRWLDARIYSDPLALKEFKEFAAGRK
Test: Inhibitory activity against dengue 2 NS3 protease fused via a linker to region of NS2B

Structure (SMILES)	Ki
CCCC[C@H](NC(=O)c1ccccc1)C(=O)N[C@@H](CCCCN)C(=O)N[C@@H](CCCN=C(N)N)C(=O)N[C@H](C=O)Cc1c[nH]c2ccccc12 (Bz-[Nle]KRW-aldehyde)	7.5 µM
NCCCC[C@H](NC(=O)c1ccccc1)C(=O)N[C@@H](CCCN=C(N)N)C(=O)N[C@H](C=O)CCCN=C(N)N (Bz-Lys-Arg-Arg-aldehyde)	1.5 µM
CCCC[C@H](NC(=O)c1ccccc1)C(=O)N[C@@H](CCCCN)C(=O)N[C@@H](Cc1ccccc1)C(=O)N[C@H](C=O)CCCNC(=N)N (Bz-[Nle]KFR-aldehyde)	40.7 µM
CCCC[C@H](NC(=O)c1ccccc1)C(=O)N[C@@H](CCCCN)C(=O)N[C@@H](CCCN=C(N)N)C(=O)N[C@H](C=O)Cc1ccc(C#N)cc1 (Bz-[Nle]KR[Phe(4-CN)]-aldehyde)	18.6 µM
C[C@H](NC(=O)c1ccccc1)C(=O)N[C@@H](CCCCN)C(=O)N[C@@H](CCCN=C(N)N)C(=O)N[C@H](C=O)CCCN=C(N)N (Bz-AKRR-aldehyde)	5.3 µM
CCCC[C@H](NC(=O)c1ccccc1)C(=O)N[C@@H](CCCCN)C(=O)N1CCC[C@H]1C(=O)N[C@H](C=O)CCCN=C(N)N (Bz-[Nle]KPR-aldehyde)	109 µM
CCCC[C@H](NC(=O)c1ccccc1)C(=O)N(C)[C@@H](CCCCN)C(=O)N[C@@H](CCCN=C(N)N)C(=O)N[C@H](C=O)CCCN=C(N)N (Bz-[Nle][NMeK]RR-aldehyde)	113 µM
CCCC[C@H](NC(=O)c1ccccc1)C(=O)N[C@@H](CCCCN)C(=O)N[C@@H](CCCNC(=N)N)C(=O)N[C@H](C=O)CCCNC(=N)N (Bz-[Nle]KRR-aldehyde)	5.8 µM
CCCC[C@H](NC(=O)c1ccccc1)C(=O)N[C@H](CCCCN)C(=O)N[C@@H](CCCN=C(N)N)C(=O)N[C@H](C=O)CCCN=C(N)N (Bz-[Nle][dK]RR-aldehyde)	28.6 µM
CCCC[C@H](NC(=O)c1ccccc1)C(=O)N[C@@H](CCCCN)C(=O)N[C@@H](CCCN=C(N)N)C(=O)N[C@H](C=O)Cc1ccccc1 (Bz-[Nle]KRF-aldehyde)	15.9 µM
CCCC[C@H](NC(=O)c1ccccc1)C(=O)N[C@@H](CCCCN)C(=O)N[C@@H](CCCN=C(N)N)C(=O)N[C@H](C=O)Cc1ccc(C)cc1 (Bz-[Nle]KR[Phe(4-Me)]-aldehyde)	6 µM
CCCC[C@H](NC(=O)c1ccccc1)C(=O)N[C@@H](CCCCN)C(=O)N[C@@H](CCCCN)C(=O)N[C@H](C=O)CCCNC(=N)N (Bz-[Nle]KKR-aldehyde)	41.3 µM
CCCC[C@H](NC(=O)c1ccccc1)C(=O)N[C@@H](CCCCN)C(=O)N(C)[C@@H](CCCN=C(N)N)C(=O)N[C@H](C=O)CCCN=C(N)N (Bz-[Nle]K[NMeR]R-aldehyde)	47.4 µM
NC(N)=NCCC[C@@H](C=O)NC(=O)[C@H](CCCN=C(N)N)NC(=O)c1ccccc1 (Bz-Arg-Arg-aldehyde)	12 µM
CCCC[C@H](NC(=O)c1ccccc1)C(=O)N[C@@H](CCCCN)C(=O)N[C@@H](CCCNC(=N)N)C(=O)N[C@H](C=O)Cc1ccc(NC(=N)N)cc1 (Bz-[Nle]KR[Phe(4-guanidino)]-aldehyde)	2.8 µM
CCCC[C@H](NC(=O)c1ccccc1)C(=O)N[C@@H](CCCCN)C(=O)N[C@@H](CCCN=C(N)N)C(=O)N[C@H](C=O)Cc1ccc(-c2ccccc2)cc1 (Bz-[Nle]KR[Bip]-aldehyde)	11.6 µM
CCCC[C@H](NC(=O)c1ccccc1)C(=O)N[C@@H](Cc1ccccc1)C(=O)N[C@@H](CCCN=C(N)N)C(=O)N[C@H](C=O)CCCN=C(N)N (Bz-[Nle]FRR-aldehyde)	15.8 µM
CCCC[C@H](NC(=O)c1ccccc1)C(=O)N[C@@H](CCCCN)C(=O)N[C@@H](C)C(=O)N[C@H](C=O)CCCN=C(N)N (Bz-[Nle]KAR-aldehyde)	> 500 µM
CCCC[C@H](NC(=O)c1ccccc1)C(=O)N[C@@H](CCCCN)C(=O)N[C@@H](CCCN=C(N)N)C(=O)N[C@H](C=O)c1ccccc1 (Bz-[Nle]KR[Phg]-aldehyde)	33 µM
CCCC[C@H](NC(=O)c1ccccc1)C(=O)N[C@@H](CCCCN)C(=O)N[C@H](CCCN=C(N)N)C(=O)N[C@H](C=O)CCCN=C(N)N (Bz-[Nle]K[dR]R-aldehyde)	115 µM
NCCCC[C@H](NC(=O)[C@H](Cc1ccccc1)NC(=O)c1ccccc1)C(=O)N[C@@H](CCCN=C(N)N)C(=O)N[C@H](C=O)CCCN=C(N)N (Bz-FKRR-aldehyde)	6.8 µM
CCCC[C@H](NC(=O)c1ccccc1)C(=O)N[C@@H](CCCCN)C(=O)N[C@@H](CCCN=C(N)N)C(=O)N[C@@H](C)C=O (Bz-[Nle]KRA-aldehyde)	193 µM
CCCC[C@H](NC(=O)c1ccccc1)C(=O)N[C@@H](CCCCN)C(=O)N[C@@H](CCCN=C(N)N)C(=O)N[C@H](C=O)CCc1ccccc1 (Bz-[Nle]KR[hPhe]-aldehyde)	> 500 µM
CCCC[C@@H](C(=O)N[C@@H](CCCCN)C(=O)N[C@@H](CCCN=C(N)N)C(=O)N[C@H](C=O)CCCN=C(N)N)N(C)C(=O)c1ccccc1 (Bz-[NMeNle]KRR-aldehyde)	43.7 µM
CCCC[C@H](NC(=O)c1ccccc1)C(=O)N[C@@H](CCCCN)C(=O)N[C@@H](CCCN=C(N)N)C(=O)N[C@@H](C=O)CCCN=C(N)N (Bz-[Nle]KR[dR]-aldehyde)	51 µM
CCCC[C@H](NC(=O)c1ccccc1)C(=O)N[C@@H](CCCCN)C(=O)N[C@@H](CCCN=C(N)N)C(=O)N[C@H](C=O)Cc1ccc(Cl)cc1 (Bz-[Nle]KR[Phe(4-Cl)]-aldehyde)	138 µM
CCCC[C@@H](NC(=O)c1ccccc1)C(=O)N[C@@H](CCCCN)C(=O)N[C@@H](CCCN=C(N)N)C(=O)N[C@H](C=O)CCCN=C(N)N (Bz-[dNle]KRR-aldehyde)	9.4 µM
CCCC[C@H](NC(=O)c1ccccc1)C(=O)N[C@@H](CCCCN)C(=O)N[C@@H](CCCN=C(N)N)C(=O)N[C@H](C=O)CCCCN (Bz-[Nle]KRK-aldehyde)	20.5 µM
CCCC[C@H](NC(=O)c1ccccc1)C(=O)N1CCC[C@H]1C(=O)N[C@@H](CCCN=C(N)N)C(=O)N[C@H](C=O)CCCN=C(N)N (Bz-[Nle]PRR-aldehyde)	61.4 µM
CCCC[C@H](NC(=O)c1ccccc1)C(=O)N[C@@H](C)C(=O)N[C@@H](CCCN=C(N)N)C(=O)N[C@H](C=O)CCCN=C(N)N (Bz-[Nle]ARR-aldehyde)	22.1 µM
